Here are results for three molecules from patent US11266675B2, “Methods of treatment of viral infection and uses of anti-HSC70 inhibitors” (priority 2018, dated 2022).

Usually CC50 stands for the concentration at which the toxic effect on the cells reaches its halfway point.

Data set [1] has as its system EV-A71. Put plainly: Intracellular viral RNA (positive and negative strand) by qRT-PCR. Type of data set: cell-based, Enterovirus A71 (SHZH98 strain). The note with it: RD cells. How it is done: (§1) Total RNA was extracted from cell lysis using TRIzol reagent (Ambion, Life Technologies). Quantitative Real-time PCR (qRT-PCR) was performed using SYBR Green Mix (Life Technologies) on applied Biosystems StepOne real-time PCR system. The comparative ΔΔCt method was used to calculate the relative expression of microRNA or mRNA normalized to β-actin mRNA.
(§2) The mRNA level of Hsc70 was detected by qRT-PCR and the protein level was detected by western blotting. […] The extracellular virus levels were detected by qRT-PCR. […] The viral titer in the supernatant was determined by TCID50 assay.
(In qPCR the cycle at which signal appears reflects the starting amount.)

In the next data set the test system is EV-A71 viral protein VP1. Put plainly: Western blot of viral protein in infected RD cells. Type of data set: cell-based, Enterovirus A71 (SHZH98 strain). How it is done:
(§3) Total protein was extracted from cell lysis in RIPA buffer with protease inhibitor and phosphatase Inhibitor (Roche). A total of 10-30 μg protein was loaded for SDS-PAGE and transferred onto PVDF membranes. Membranes were blocked with 5% non-fat milk in Tris-buffered saline buffer with 0.1% Tween-20 (TBST) for 1 hour at room temperature and incubated with primary antibodies overnight at 4° C. After washing with TBST three times, the membranes were incubated with the corresponding horseradish peroxidase (HRP)-conjugated secondary antibodies for 1 hour at room temperature. The Hsc70 protein level was detected using an Hsc70-specific antibody (sc-13132, Santa Cruz Biotechnology, USA). The band density was quantified using Quantity One software (Bio-Rad). GADPH served as loading control. The western blotting was carried out in three times for confirmation of results.
The mRNA level of Hsc70 was detected by qRT-PCR and the protein level was detected by western blotting. […] The extracellular virus levels were detected by qRT-PCR. […] The viral titer in the supernatant was determined by TCID50 assay. […]
(§4) In FIG. 5A, cell images under light microscope. […] In FIG. 5C, EV-A71 IRES activity detected by luciferase activities are shown. […]

For data set [2], the system named is EV-A71. Put plainly: Viral titer in supernatant by TCID50 assay. The format is cell-based, Enterovirus A71 (SHZH98 strain). The note with it: RD cells, siRNA 48 hours, EV-A71 9 hours, culture media. On the procedure: (§5) Human rhabdomyosarcoma (RD) cells were purchased from ATCC (CCL-136). The Dulbecco's modified Eagle's medium (DMEM) with 10% fetal bovine serum (FBS) were used for cell culture, supplemented with 100 U/ml penicillin and 100 μg/ml streptomycin Propagation of EV-A71 (SHZH98 strain, accession number AF302996) was the same as previous report. The viral titer was measured by TCID50 assays.
as §2

Data set [3] deals with EV-A71. Put plainly: Extracellular viral RNA / virus yield in supernatant by qRT-PCR. The format is cell-based, Enterovirus A71 (SHZH98 strain). The note with it: RD cells; for Virus yield in the supernatants vs scrambled control: siRNA 48 hours, EV-A71 MOI of 10, nine hours p.i. On the procedure:
as §1, §2
To address the drug target potential of Hsc70 against EV-A71, experiments were conducted to examine if Ver-155008, a chemical inhibitor of Hsc70, could protect cells from EV-A71 infection. In this regard, RD cells were pre-treated for 2 hours with Ver-155008, then infected the cells with EV-A71 for another 9 hours at an MOI of 10.
In FIG. 5A, cell images under light microscope. In FIG. 5B, proteins levels of VP0/2 by western blot are shown. In FIG. 5C, EV-A71 IRES activity detected by luciferase activities are shown. (n=3; ***, p<0.001). In FIG. 5D, there is shown the extracellular viral RNA levels were examined by qRT-PCR.

In data set [4] the test system is EV-A71. Briefly: 2Apro-regulated viral protein production in HEK 293T cells, western blot (VP0/2 antibody). Type of data set: cell-based, Enterovirus A71 (SHZH98 strain). The note with it: si-Hsc70 then 2Apro expression plasmid, EV-A71 MOI of 5 for 9 hours. How it is done:
as §3
In FIG. 4A, HEK 293T cells were co-transfected with pHsc70, pIRES reporter plasmid and 2A^pro-expressing plasmid or empty vector for forty-eight hours, then the reporter activity was measured. In FIG. 4B, HEK 293T cell extract was incubated with the His-tagged 2A^pro, pulled down and then analyzed by western blotting. […] The cleavage products were assessed by immunoblotting. […] The viral protein production was detected by western blotting by using VP0/2 antibody (n=3).
(In western blotting, separated proteins are transferred to a membrane and probed.)

Another data set deals with EV-A71 IRES. Put plainly: Dual-luciferase IRES reporter assay. Type of data set: cell-based. The note with it: Ver-155008 treatment.
Source text: Human Hsc70 (Accession NM_006597) was purchased from Addgene (Cat. No. 19541). The EV-A71 report plasmid pIRES was constructed as previously described. In detail, the EV-A71 reportor plasmid pIRES was constructed as follows: Renilla Luciferase gene (RLuc) was inserted into pcDNA4/HisMax B between BamHI and EcoRV sites; EV-A71 IRES was amplified from EV-A71 virus strain (SHZH98). Firefly Luciferase gene (FLuc) was amplified by using primer which has overlap sequence with the C-terminal of EV-A71 IRES. Finally, the construct IRES-FLuc were then amplified by using overlap PCR, and inserted into the downstream of the Renilla Luciferase gene between EcoRV and XbarI sites. […]
HEK 293T cells were seeded into a 24-well plate and incubated at 37° C. overnight and then transfected with Hsc70 expression plasmid (pHsc70) or siRNA. […] The activity of RLuc and FLuc were assessed by bioluminometer using a dual-luciferase reporter assay (Promega) according to the manufacturer.
FIG. 3A is concerned with 293T cells were co-transfected with si-Hsc70 and IRES reporter plasmid for forty-eight hours. […] Proteins which interact with the RNAs were detected by immunoblotting with specific antibody. […]
as §4

The next data set deals with RD cells. Briefly: Cell viability assay (MTT). The format is cell-based, Human. The note with it: serial dilution of Ver-155008 for 24 hours. How it is done:
RD cells were seeded in 96-well plates (5,000 cells/well) and treated with serial dilution of Ver-155008 for 24 hours for cell viability assay. Ten μL of MTT was added to cultured cells in 100 μl culture medium and incubated at 37° C. for 4 h. Subsequently 100 μl of Dimethyl Sulfoxide were added. The optical density was measured at a wavelength of 570 nm. The cell viability assay was carried out in triplicates by three independent experiments as previously described.

Data set [5] has as its system EV-A71. Put plainly: Cytopathic effect (CPE) assay. The format is cell-based, Enterovirus A71 (SHZH98 strain). On the procedure: as §5
CPE assay was used to test the antiviral effect of Ver-155008. Ver-155008 was from Selleckchem (Cat. No. S7751). RD cells were seed in 96-well plate at 37° C. overnight, was then treated with indicated concentration of Ver-155008. […] CPE was monitored and recorded from time to time under a phase-contrast microscope. The concentration required to reduce the EV-A71-induced CPE by 50% (IC50) was determined by using the nonlinear regression analysis of SPSS 17.0. Data were shown as mean values with standard deviations from three independent assays. Selectivity index (SI) is calculated by the ratio of CC50 to IC50.
On the technique in general: Cytopathic effects are the visible damage that an infection or toxin causes in cultured cells.

“5′-UAAUUCUAAGUACAUUGAGACCAGC-3′ (SEQ ID NO: 1) (other siRNA strand not cited, further chemistry not given here) [si-Hsc70-1, small interfering RNA targeting human Hsc70 (NM_006597), synthesized from Genepharma]”: the “Decrease of negative strand viral RNA level” value is listed as “about 86%” in the data set with EV-A71 [1] (EV-A71 MOI of 10, 3 hours p.i.); “about 70%” in the data set with EV-A71 [1] (EV-A71 MOI of 10, 6 hours p.i.); “about 70%” in the data set with EV-A71 [1] (EV-A71 MOI of 10, 9 hours p.i.). In addition, the “Decrease of positive strand viral RNA level” value in the data set on EV-A71 [1] (EV-A71 MOI of 10, 3 hours p.i.) was “about 86%”; in the data set on EV-A71 [1] (EV-A71 MOI of 10, 6 hours p.i.), “about 70%”; in the data set with EV-A71 [1] (EV-A71 MOI of 10, 9 hours p.i.), “about 70%”. For the same molecule, the “Inhibitory effect on viral RNA levels” value in the data set with EV-A71 [1] (EV-A71 MOI of 10, 12 hours p.i.) is on record as “still significant”. Also, the “EV-A71 viral protein VP1 (western blot) vs control cells” value with EV-A71 viral protein VP1 (RD cells with Hsc70 knockdown, EV-A71 MOI of 10) is listed as “significantly decreased”. Also, the “Decrease of virus titer vs scramble siRNA control (TCID50)” value with EV-A71 [2] is recorded as “more than 10 times”. For the same molecule, in the data set on EV-A71 [3], the “Virus yield in the supernatants vs scrambled control” value is reported as “obviously decreased”. Besides, the “2Apro-elicited production of viral protein after knockdown of Hsc70” value in the data set with EV-A71 [4] is on record as “failed to elicit the production of viral protein”.

Regarding “5′-CCUAAAUUCGUAGCAAAUU-3′ (SEQ ID NO: 2) (other siRNA strand not cited, further chemistry not given here) [si-Hsc70-2, small interfering RNA targeting human Hsc70 (NM_006597), synthesized from Genepharma]”, the “Virus yield in the supernatants vs scrambled control” value with EV-A71 [3] is reported as “obviously decreased”.

In the case of `N#Cc1ccc(COC[C@H]2O[C@@H](n3c(NCc4ccc(Cl)c(Cl)c4)nc4c(N)ncnc43)[C@H](O)[C@@H]2O)cc1` [Ver-155008], the “EV-A71 IRES activity (luciferase)” value with EV-A71 IRES is listed as “declined in a dose-dependent manner”. For the same molecule, the CC50 in the data set on RD cells (read-out: Cytotoxity CC50) was found to be 47.7 µM. The CC90 in the data set on RD cells (read-out: Cytotoxity CC90) is 91.9 ± 0.94 µM. For the same molecule, the “Viral VP1 levels (western blot)” value in the data set with EV-A71 viral protein VP1 (RD cells pre-treated 2 hours with Ver-155008, EV-A71 MOI of 10, 9 hours) is listed as “obviously repressed by Ver-155008 in a dose dependent manner”. For the same molecule, in the data set on EV-A71 [3] (8 μM, EV-A71 MOI of 10, 9 hours), the “Decrease of secreted virions (extracellular viral RNA, qRT-PCR)” value was determined as 55%. In addition, in the data set on EV-A71 [5] (RD cells infected with EV-A71 at MOI of 0.01, read-out: Antiviral activity IC50 (concentration reducing EV-A71-induced CPE by 50%)), the IC50 amounted to 2.01 µM. For the same molecule, the “Cytopathic effect (CPE)” value in the data set on EV-A71 [5] (RD cells, 8 μM, 2 h pre-treatment, EV-A71 MOI of 10 for 9 hours) is reported as “nearly no obvious cytopathic effect”. The “Selective Index SI (CC50/IC50)” value in the data set on EV-A71 [5] (RD cells, EV-A71) was found to be 23.71.
